Source: the supplement of paper PMC11208160

Experiment: recombinant UMI read abundance after kanamycin selection (control-corrected) (log10(CPM+1)); higher = more efficient recombination; extreme values may be limits of the assay; sequences stand for … in AGTGCAGAGAAAATCGGCCAGTTTTCTCTGCCTGCAGTCCGCATGCCGTGGGACCCCTTGGGTTCTAACCTGTTGCCTAGATTTATGCAGCGGACTGCCTTTCTCCCAAAGTGATAAACCGG…AGGTTGGTTTCACT; site = the 11-nt donor
Method in brief: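 The measure is log10(CPM+1) for recombinant UMIs. These were PCR-amplified across the donor–target junction and sequenced after Escherichia coli carrying a donor and donor-binding-loop pair library and a target plasmid with T7-inducible IS621 bridge recombinase was plated on IPTG (0.07 mM) plus kanamycin or unselected. CPM were averaged over two replicates and scaled by control-derived factors.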
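Further: IS621 bridge recombinase in Escherichia coli cells against a fixed T5 target plasmid.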

Point of comparison: “CGATCACCATGGACCGGTTTTCCCGGTAATCCGTATTTGAT (site CGATCATCTAG)”, “recombinant UMI read abundance (log10)” value 0. Against it:
- CGAAGACCATGGACCGGTTTTCCCGGTAATCCGTATTTGGG (site CGACGACCTCC) — within 0.2 log units, 0.0149
- CGAAGACCATGGACCGGTTTTCCCGGTAATCCGTATTTGGG (site CGAGGACCTCC) — within 0.2 log units, 0.0232
- CGAAGACCATGGACCGGTTTTCCCGGTAATCCGTATTTGGG (site CGATGACCTCC) — within 0.2 log units, 0.006
- CGAAGTCCATGGACCGGTTTTCCCGGTAATCCGTATTTGCG (site CGAAGTCCTCG) — higher, 1.21
- CGAATAACATGGACCGGTTTTCCCGGTAATCCGTATTTGCC (site CGAATAACTGG) — higher, 0.484
- CGACAATCATGGACCGGTTTTCCCGGTAATCCGTATTTGAC (site CGACAATCTGT) — higher, 2.86
- CGACCAACATGGACCGGTTTTCCCGGTAATCCGTATTTGAT (site GAGGGGCCTTC) — within 0.2 log units, 0.006
- CGACCATCATGGACCGGTTTTCCCGGTAATCCGTATTTGGT (site CGACCATCTAC) — higher, 0.825
- CGACCATCATGGACCGGTTTTCCCGGTAATCCGTATTTGGT (site CGATCATCTAG) — the same, 0
- CGACCCTCATGGACCGGTTTTCCCGGTAATCCGTATTTGCT (site CGACCCTCTAG) — higher, 3.63
- CGACCCTCATGGACCGGTTTTCCCGGTAATCCGTATTTGCT (site CGATCATCTAG) — the same, 0
- CGACGACCATGGACCGGTTTTCCCGGTAATCCGTATTTGAC (site CGACGACCTGT) — the same, 0
- CGACGGTCATGGACCGGTTTTCCCGGTAATCCGTATTTGTC (site CGACGGTCTGA) — higher, 2.77
- CGACGTACATGGACCGGTTTTCCCGGTAATCCGTATTTGCT (site CGACGTACTAG) — higher, 2.45
- CGACGTACATGGACCGGTTTTCCCGGTAATCCGTATTTGCT (site CGCCGTACTAG) — within 0.2 log units, 0.0167
- CGACGTACATGGACCGGTTTTCCCGGTAATCCGTATTTGCT (site CGGCGTACTAG) — higher, 0.688
- CGACGTACATGGACCGGTTTTCCCGGTAATCCGTATTTGCT (site CGTCGTACTAG) — higher, 0.764
- CGACTTGCATGGACCGGTTTTCCCGGTAATCCGTATTTGAT (site CGACTTGCTAT) — higher, 2.39
- CGAGAGGCATGGACCGGTTTTCCCGGTAATCCGTATTTGGG (site CGAGAGGCTCC) — higher, 0.928
- CGAGCATCATGGACCGGTTTTCCCGGTAATCCGTATTTGCT (site CGAACATCTAG) — the same, 0
- CGAGCATCATGGACCGGTTTTCCCGGTAATCCGTATTTGCT (site CGACCATCTAG) — the same, 0
- CGAGCATCATGGACCGGTTTTCCCGGTAATCCGTATTTGCT (site CGAGCATCTAG) — higher, 1.79
- CGAGCATCATGGACCGGTTTTCCCGGTAATCCGTATTTGCT (site CGATCATCTAG) — the same, 0
- CGAGGACCATGGACCGGTTTTCCCGGTAATCCGTATTTGCG (site CGAGGACCTCA) — within 0.2 log units, 0.00306
- CGAGGACCATGGACCGGTTTTCCCGGTAATCCGTATTTGCG (site CGAGGACCTCC) — within 0.2 log units, 0.00697
- CGAGGACCATGGACCGGTTTTCCCGGTAATCCGTATTTGCG (site CGAGGACCTCG) — the same, 0
- CGAGGACCATGGACCGGTTTTCCCGGTAATCCGTATTTGCG (site CGAGGACCTCT) — within 0.2 log units, 0.00945
- CGAGGACCATGGACCGGTTTTCCCGGTAATCCGTATTTGGA (site CGAGGACCTAC) — the same, 0
- CGAGGACCATGGACCGGTTTTCCCGGTAATCCGTATTTGGA (site CGAGGACCTCC) — within 0.2 log units, 0.0127
- CGAGGACCATGGACCGGTTTTCCCGGTAATCCGTATTTGGA (site CGAGGACCTGC) — the same, 0
- CGAGGACCATGGACCGGTTTTCCCGGTAATCCGTATTTGGA (site CGAGGACCTTC) — within 0.2 log units, 0.0145
- CGAGGATCATGGACCGGTTTTCCCGGTAATCCGTATTTGGG (site CGAGGAACTCC) — within 0.2 log units, 0.0163
- CGAGGATCATGGACCGGTTTTCCCGGTAATCCGTATTTGGG (site CGAGGACCTCC) — within 0.2 log units, 0.00347
- CGAGGATCATGGACCGGTTTTCCCGGTAATCCGTATTTGGG (site CGAGGAGCTCC) — the same, 0
- CGAGGATCATGGACCGGTTTTCCCGGTAATCCGTATTTGGG (site CGAGGATCTCC) — higher, 1.15
- CGAGTATCATGGACCGGTTTTCCCGGTAATCCGTATTTGAT (site CGAGTATCTAT) — higher, 2.89
- CGAGTATCATGGACCGGTTTTCCCGGTAATCCGTATTTGAT (site CTAGTATCTGT) — the same, 0
- CGATAATCATGGACCGGTTTTCCCGGTAATCCGTATTTGCG (site CGATAATCTCG) — higher, 3.34
- CGATAATCATGGACCGGTTTTCCCGGTAATCCGTATTTGCG (site CGATCATCTAG) — the same, 0
- CGATCAACATGGACCGGTTTTCCCGGTAATCCGTATTTGTT (site CGATCAACTAA) — within 0.2 log units, 0.0564
- CGATCAACATGGACCGGTTTTCCCGGTAATCCGTATTTGTT (site CGATCCACTAA) — within 0.2 log units, 0.0118
- CGATCAACATGGACCGGTTTTCCCGGTAATCCGTATTTGTT (site CGATCGACTAA) — within 0.2 log units, 0.00905
- CGATCAACATGGACCGGTTTTCCCGGTAATCCGTATTTGTT (site CGATCTACTAA) — within 0.2 log units, 0.00984
- CGATCACCATGGACCGGTTTTCCCGGTAATCCGTATTTGAT (site CGATCACCTAT) — within 0.2 log units, 0.00371
- CGATCATCATGGACCGGTTTTCCCGGTAATCCGTATTTGCT (site ACATCATCTAG) — higher, 1.28
- CGATCATCATGGACCGGTTTTCCCGGTAATCCGTATTTGCT (site AGAGCATCTAG) — the same, 0
- CGATCATCATGGACCGGTTTTCCCGGTAATCCGTATTTGCT (site AGATCAGCTAG) — within 0.2 log units, 0.00274
- CGATCATCATGGACCGGTTTTCCCGGTAATCCGTATTTGCT (site AGATCATCTAA) — within 0.2 log units, 0.00548
- CGATCATCATGGACCGGTTTTCCCGGTAATCCGTATTTGCT (site AGATCATCTAG) — higher, 2.17
- CGATCATCATGGACCGGTTTTCCCGGTAATCCGTATTTGCT (site AGATCATCTTG) — the same, 0
- CGATCATCATGGACCGGTTTTCCCGGTAATCCGTATTTGCT (site AGATCTTCTAG) — the same, 0
- CGATCATCATGGACCGGTTTTCCCGGTAATCCGTATTTGCT (site AGATTATCTAG) — within 0.2 log units, 0.017
- CGATCATCATGGACCGGTTTTCCCGGTAATCCGTATTTGCT (site AGGTCATCTAG) — the same, 0
- CGATCATCATGGACCGGTTTTCCCGGTAATCCGTATTTGCT (site CAAACATCTAG) — higher, 1.6
- CGATCATCATGGACCGGTTTTCCCGGTAATCCGTATTTGCT (site CAATCACCTAG) — the same, 0
- CGATCATCATGGACCGGTTTTCCCGGTAATCCGTATTTGCT (site CAATCATCTAG) — higher, 1.62
- CGATCATCATGGACCGGTTTTCCCGGTAATCCGTATTTGCT (site CAATCATCTAT) — the same, 0
- CGATCATCATGGACCGGTTTTCCCGGTAATCCGTATTTGCT (site CAATCATCTGG) — the same, 0
- CGATCATCATGGACCGGTTTTCCCGGTAATCCGTATTTGCT (site CAATCGTCTAG) — within 0.2 log units, 0.00456
- CGATCATCATGGACCGGTTTTCCCGGTAATCCGTATTTGCT (site CAATGATCTAG) — the same, 0
- CGATCATCATGGACCGGTTTTCCCGGTAATCCGTATTTGCT (site CATTCATCTAG) — higher, 1.44
- CGATCATCATGGACCGGTTTTCCCGGTAATCCGTATTTGCT (site CCAGCATCTAG) — within 0.2 log units, 0.0355
- CGATCATCATGGACCGGTTTTCCCGGTAATCCGTATTTGCT (site CCATCAGCTAG) — the same, 0
- CGATCATCATGGACCGGTTTTCCCGGTAATCCGTATTTGCT (site CCATCATCTAA) — the same, 0
- CGATCATCATGGACCGGTTTTCCCGGTAATCCGTATTTGCT (site CCATCATCTAG) — higher, 0.987
- CGATCATCATGGACCGGTTTTCCCGGTAATCCGTATTTGCT (site CCATCATCTTG) — the same, 0
- CGATCATCATGGACCGGTTTTCCCGGTAATCCGTATTTGCT (site CCATCTTCTAG) — the same, 0
- CGATCATCATGGACCGGTTTTCCCGGTAATCCGTATTTGCT (site CCATTATCTAG) — the same, 0
- CGATCATCATGGACCGGTTTTCCCGGTAATCCGTATTTGCT (site CCGTCATCTAG) — higher, 0.747
- CGATCATCATGGACCGGTTTTCCCGGTAATCCGTATTTGCT (site CGAACACCTAG) — the same, 0
- CGATCATCATGGACCGGTTTTCCCGGTAATCCGTATTTGCT (site CGAACATCTAG) — higher, 0.278
- CGATCATCATGGACCGGTTTTCCCGGTAATCCGTATTTGCT (site CGAACATCTAT) — within 0.2 log units, 0.00401
- CGATCATCATGGACCGGTTTTCCCGGTAATCCGTATTTGCT (site CGAACATCTGG) — the same, 0
- CGATCATCATGGACCGGTTTTCCCGGTAATCCGTATTTGCT (site CGAACGTCTAG) — within 0.2 log units, 0.00334
